The test system of one series is HTT protein. The experiment in a line: HTT protein electrochemiluminescence (ECL) assay in HD patient fibroblasts, 96 h. The series is classed as cell-based, human. The conditions noted are these: fibroblasts derived from HD patients, 96 h. How it is done: Human fibroblasts derived from a homozygous patient with HD (GM4857) were cultured for 96 hours in the presence of test compounds (in 0.5% DMSO) or controls at 37° C. in a humidified 5% CO2 atmosphere. After 96 hours, cells were lysed and frozen. HTT protein levels were measured in lysates as described below. Compounds that decreased HTT protein levels relative to DMSO control were further tested in a dose response assay.
For analysis in the electrochemiluminescence (ECL) assays, test compounds were serially diluted 3-fold in 100% DMSO (Sigma) to generate a 7-point concentration curve. A solution of test compound (500 nL, 200× in DMSO) was added to each test well with Acoustic Transfer System (EDC Biosystems); final concentration of DMSO was 0.5%. Fibroblasts were seeded in 96-well flat-bottomed plates (Thermo Fisher) at 4×10^3 cells/well in 100 μl of culture medium containing the test compound or DMSO vehicle control and incubated for 96 hours (37° C., 5% CO2, 100% relative humidity). After removal of the supernatant, cells were lysed in 50 μL of 1×LB11 extraction buffer (50 mM Tris (pH 7.4), 300 mM NaCl, 10% [w/v] glycerol, 3 mM EDTA, 1 mM MgCl2, 20 mM glycerophosphate, 25 mM NaF, 1% Triton X-100), containing a Complete™ protease inhibitor cocktail (Roche Diagnostics) with shaking at 4° C. for 30 minutes; the plates were then stored at −20° C.
Meso Scale Discovery® 96-well plates (MSD®) were coated overnight at 4° C. with primary antibodies in phosphate-buffered saline (PBS; 30 μl/well). The plates were washed three times with 0.05% Tween-20 in 1×PBS (PBS-T; 200 μl/well) then blocked (100 μl/well; 5% bovine serum albumin [BSA] in PBS-T) for 5-6 hours at room temperature (RT) with shaking. Plates were then washed three times with PBS-T. Cell lysates were transferred to the antibody coated plates (25 μl/well) and incubated with shaking overnight at 4° C. After removal of the lysates, the plates were washed three times with PBS-T, and 25 μl of detection antibody in 1% BSA, PBS-T was added to each well and incubated with shaking for 1 hour at room temperature. After three washes with PBS-T, 25 μl of Sulfo-Tag secondary antibody (MSD®; 0.25 μg/ml in 1% BSA, PBS-T) was added to each well and incubated with shaking for 1 hour at RT. After washing three times with PBS-T, 150 μl of read buffer T with surfactant (MSD®) was added to each empty well and the plate was imaged on the SI 6000 imager (MSD®) according to manufacturers' instructions for 96-well plates. Primary capture antibodies included: anti-polyglutamine-expanded HTT mouse monoclonal antibody (mAb) clone MW1 (1 μg/mL; Developmental Studies Hybridoma Bank); anti-HTT MAB2166 mAb (1 μg/mL; Millipore); anti-human KRAS rabbit polyclonal antibody (1 μg/mL; Thermo Fisher Scientific). Detection antibodies included: Huntingtin (D7F7) XP® Rabbit mAb (0.25 μg/ml; Cell Signalling Technology®); anti-hKRAS mouse mAb (0.25 μg/ml; LSBIO).

Another series concerns HTT pre-mRNA. The experiment in a line: Ampliseq/RNAseq analysis of intron 49 pseudoexon inclusion and HTT expression in different cell types. It counts as cell-based, human.
The target in the next series is T1, MDR1 (Homo sapiens, UniProt P08183).
T1 construct: host or cells: MDCK (Madin-Darby Canine Kidney) cells expressing MDR1
T1 sequence (P08183 whole entry): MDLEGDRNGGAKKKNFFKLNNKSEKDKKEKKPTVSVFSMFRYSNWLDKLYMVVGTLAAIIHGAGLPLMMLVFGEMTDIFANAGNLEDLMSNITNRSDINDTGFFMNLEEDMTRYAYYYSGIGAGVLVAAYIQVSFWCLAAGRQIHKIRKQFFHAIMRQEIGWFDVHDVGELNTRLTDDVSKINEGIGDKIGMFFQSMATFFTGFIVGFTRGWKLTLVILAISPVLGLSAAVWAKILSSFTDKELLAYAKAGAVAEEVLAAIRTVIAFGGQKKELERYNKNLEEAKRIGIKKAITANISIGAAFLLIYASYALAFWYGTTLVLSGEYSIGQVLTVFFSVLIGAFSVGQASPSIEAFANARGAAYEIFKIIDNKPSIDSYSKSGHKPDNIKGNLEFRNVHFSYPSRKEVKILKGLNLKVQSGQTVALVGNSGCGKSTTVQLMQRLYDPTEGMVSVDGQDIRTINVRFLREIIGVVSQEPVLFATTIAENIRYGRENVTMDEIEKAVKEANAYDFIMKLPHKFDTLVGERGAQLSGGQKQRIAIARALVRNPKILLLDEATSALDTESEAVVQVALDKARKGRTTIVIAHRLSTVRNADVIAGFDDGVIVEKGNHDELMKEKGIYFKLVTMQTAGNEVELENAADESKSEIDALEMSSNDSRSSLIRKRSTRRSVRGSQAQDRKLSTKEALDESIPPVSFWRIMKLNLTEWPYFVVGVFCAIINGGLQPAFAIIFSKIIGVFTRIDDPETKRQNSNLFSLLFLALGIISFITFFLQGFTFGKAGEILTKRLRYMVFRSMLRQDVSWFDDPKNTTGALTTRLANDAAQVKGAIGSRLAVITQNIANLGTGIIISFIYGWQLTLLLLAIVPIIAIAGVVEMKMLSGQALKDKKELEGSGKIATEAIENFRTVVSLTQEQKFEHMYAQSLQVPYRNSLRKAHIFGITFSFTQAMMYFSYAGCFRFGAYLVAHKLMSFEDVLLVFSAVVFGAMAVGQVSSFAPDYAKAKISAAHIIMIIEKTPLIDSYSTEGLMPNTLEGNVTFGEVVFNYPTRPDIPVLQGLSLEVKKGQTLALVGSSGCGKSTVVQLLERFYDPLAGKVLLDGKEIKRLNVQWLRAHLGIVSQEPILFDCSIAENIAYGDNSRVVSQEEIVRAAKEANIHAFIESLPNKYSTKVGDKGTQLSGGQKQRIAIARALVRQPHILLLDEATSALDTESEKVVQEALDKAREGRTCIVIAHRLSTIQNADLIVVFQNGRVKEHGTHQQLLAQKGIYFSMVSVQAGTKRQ
The series can be described thus: MDCK-MDR1 efflux assay. Conditions: 10 μM, MDCK-MDR1 and MDCK-WT monolayers, 1 hour. It counts as in vitro ADME. How it is done:
The MDR1 efflux assay was conducted at Absorption System LLC (Exton, Pa.). Briefly, MDCK-MDR1 and MDCK-WT cell monolayers were grown to confluence on collagen-coated, microporous membranes in 12-well assay plates (Thermofisher). Compound solutions (10 μM) in permeability assay buffer (Hanks' balanced salt solution (HBSS), 10 mM HEPES, 15 mM glucose; pH of 7.4) were placed in the donor chamber. The receiver chamber was filled with assay buffer plus 1% BSA. Cell monolayers were dosed on the apical side (A-to-B) or basolateral side (B-to-A) and incubated at 37° C. (5% CO2, 100% relative humidity). Sampling from the donor chambers was performed at 0 and 1 hour; and from the receiver chambers at 1 hour. Each determination was performed in duplicate. The flux of lucifer yellow was also measured post-experimentally for each monolayer to ensure no damage was inflicted to the cell monolayers during the flux period. All samples were assayed by LC-MS/MS using electrospray ionisation. The apparent permeability (Papp) and percent recovery was determined using the following equation: […]
dCr/dt represents the slope of the cumulative receiver concentration versus time in μM/s; Vr is the volume of the receiver compartment (cm3); Vd is the volume of the donor compartment in (cm3); A is the area of the insert (1.13 cm2 for 12-well); C0 is the average measured concentration of the donor chamber at time zero in μM; Net Efflux ratio (ER) is defined as […].

Series [1] in a line: Unbound brain partition coefficient (Kp,uu) from mouse PK studies. The series is classed as in vivo. Conditions: FVB (WT littermates of the BACHD colony), brain and plasma (unbound), oral, 10 mg/kg, average over animals of multiple mouse PK studies. As for the experimental part:
Oral pharmacokinetics (PK) of compounds was evaluated in WT littermates from the BACHD colony (FVB background). Mice were treated with test compounds (10 mg/kg) by oral gavage in 0.5% hydroxypropylmethyl cellulose (HPMC) with 0.1% Tween 80. Blood was collected by terminal cardiac puncture at specified time points (3 mice per time point) and centrifuged to generate plasma. Brain tissue was collected at the time of blood collection and homogenized in water. Protein was precipitated from plasma and brain homogenates with acetonitrile, methanol mixture (5:1, v:v) containing an internal standard that is a close analog of the test compounds. The mixture was filtered through an EMD Millipore MultiScreen™ Solvinert Filter Plate (MSRLN04, Millipore, Burlington, Mass.). Calibration standards were prepared in the same matrix and processed with the testing samples. Filtrates were analysed using Acquity ultra performance liquid chromatography (UPLC) system (Waters Corporation) tandem with Xevo TQ-s Spectrometer (Waters Corporation). Samples were injected on to a Waters UPLC Acquity BEH C18 Column (2.1*50 mm, 1.7 μm) maintained at 50° C. The injection volume was 3 μL and the mobile phase flow rate was 0.45 mL/min. The mobile phase consisted of 2 solvents: A) 0.1% formic acid in water and B) 0.1% formic acid in acetonitrile. The initial mobile phase started with 5% solvent B for 0.4 min, which was changed to […] over 0.8 min with linear gradients and then maintained at 95% solvent B for another 0.4 min. The drug concentrations were acquired and processed with MassLynx 4.1 software. PK parameters were estimated using the non-compartment method within Phoenix® WinNonlin® Build 8.1 (Certara USA, Inc., Princeton, N.J.).
The unbound brain partition coefficient (Kp,uu) is defined as the ratio between unbound brain free drug concentration and unbound plasma concentration. It was calculated using the following equation:
Kp,uu=Cbrain×fu,b/(Cplasma*fu,p)
Cbrain and Cplasma represent the compound concentrations in brain and plasma, respectively. fu,b and fu,p are the unbound fraction of each testing article in brain and plasma, respectively. Both fu,b and fu,p were determined in vitro using Pierce Rapid Equilibrium Dialysis (RED) device at Absorption System LLC (Exton, Pa.). Kp,uu was calculated individually for each animal from multiple mouse PK studies and the average values are reported here.

Structures are written as SMILES.

For `Cn1c(/C=C/c2ccc(Cl)cc2)c([N+](=O)[O-])c(=O)n(C)c1=O` [HTT-B], in the series with HTT protein, the HTT protein level entry is “lower HTT protein levels”.

For the molecule `CC1(C)CC(n2nnc3cc(-c4ccc(-n5nccn5)cc4O)nnc32)CC(C)(C)N1` [HTT-C3], the “HTT gene expression quantified using RNAseq (FPKM)” value in the series on HTT pre-mRNA (100 nM, SHSY5Y cells (HTT-C2), TK6 cells (HTT-C3)) is listed as “reduced HTT gene expression”. In the series with HTT pre-mRNA (HD fibroblasts, SH-SY5Y, TK6, MRC-5 cells), the “inclusion of intron 49 pseudoexon” value is listed as “induced the inclusion of an Intron 49 pseudoexon”. In addition, on MDR1, the “NET MDR1 ER” value amounted to 2.0. Further, the Kp uu in series [1] was 0.848.

With `CC(C)c1cc(-c2n[nH]cc2-c2ccc3c(c2)OCO3)c(O)cc1O` [HTT-A], the HTT protein level entry with HTT protein is recorded as “lower HTT protein levels”.

Source of the values: patent US20220162610A1, “NOVEL RNA TRANSCRIPT” (PTC Therapeutics, Inc., priority 2020, published 2022).
